Target: Dual specificity calcium/calmodulin-dependent 3',5'-cyclic nucleotide phosphodiesterase 1C (Homo sapiens, UniProt Q14123)
Assay: Inhibition of PDE1C (147 to 531 residues) (unknown origin) expressed in Escherichia coli BL21 at 1000 nM [3H]-cGMP as substrate measured for 15 mins by liquid scintillation counter method relative to control

Dual specificity calcium/calmodulin-dependent 3',5'-cyclic nucleotide phosphodiesterase 1C, sequence (Q14123 whole entry, the tested form may be a part): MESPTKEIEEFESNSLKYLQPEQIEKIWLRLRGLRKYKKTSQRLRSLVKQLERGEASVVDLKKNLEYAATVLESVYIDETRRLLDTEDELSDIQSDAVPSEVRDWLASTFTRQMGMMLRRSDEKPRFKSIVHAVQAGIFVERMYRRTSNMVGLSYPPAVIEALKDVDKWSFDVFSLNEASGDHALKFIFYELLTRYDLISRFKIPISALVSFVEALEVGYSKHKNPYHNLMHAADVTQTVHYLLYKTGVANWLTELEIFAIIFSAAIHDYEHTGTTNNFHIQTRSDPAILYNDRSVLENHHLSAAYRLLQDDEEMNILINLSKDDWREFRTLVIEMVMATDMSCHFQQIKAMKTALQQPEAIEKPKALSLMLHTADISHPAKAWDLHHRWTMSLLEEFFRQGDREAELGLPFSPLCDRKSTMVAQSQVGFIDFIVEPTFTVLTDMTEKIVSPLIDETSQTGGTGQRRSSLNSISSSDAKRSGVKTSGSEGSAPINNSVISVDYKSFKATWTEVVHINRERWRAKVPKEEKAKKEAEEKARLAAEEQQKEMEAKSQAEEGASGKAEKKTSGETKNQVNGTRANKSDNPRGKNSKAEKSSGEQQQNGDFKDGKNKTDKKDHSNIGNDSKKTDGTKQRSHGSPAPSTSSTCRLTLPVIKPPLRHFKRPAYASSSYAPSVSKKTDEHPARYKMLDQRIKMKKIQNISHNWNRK

COC(=O)C1=C(C)NC(C)=C(C(=O)OC)C1c1ccc(OC)c(OC)c1
inhibition: 43%

Source: ChEMBL document CHEMBL5154941, “Structural Modifications of Nimodipine Lead to Novel PDE1 Inhibitors with Anti-pulmonary Fibrosis Effects” (J Med Chem, 2022)
